Test results as given in article PMC6213047, “Design of Antibacterial Agents: Alkyl Dihydroxybenzoates against Xanthomonas citri subsp. citri” (International Journal of Molecular Sciences, 2018).
Read-outs that look alike come from different tables or passages of the source.

Key:
[1] = Partition coefficient log Po/w by HPLC (OECD 117); format: physicochemical; settings: HPLC method, OECD 117, methanol:water 3:1
Procedure: The analyses were performed with the use of an isocratic flow in methanol: water (3:1) at 1.0 mL min^−1. We injected 20.0 μL and analyses were performed at 254 nm. We used as reference compounds thiourea, phenol, acetophenone, benzoic acid, benzene, toluene, biphenyl, fluoranthene and triphenylamine in order to construct the curve log K × log Po/w. The lipophilicity of alkyl dihydroxybenzoates was determined from their retention times and interpolation in linearity curve log K × log Po/w. We performed the analyses in duplicate.

[2] = tested on: X. citri subsp. citri strain 306 (IBSBF 1594); experiment: MIC by Resazurin Microtiter Assay (REMA); format: cell-based, Xanthomonas citri subsp. citri; settings: Xanthomonas citri, 12 h
Procedure: The antibacterial potential of carboxylic acids and their esters were compared to copper oxychloride (a commercial active often used to combat citrus canker). Minimal inhibitory concentration (MIC) values were determined by REMA assay, which measures cellular respiratory activity.
(§1) The antibacterial activity of alkyl dihydroxybenzoates and the determination of minimum inhibition concentration (MIC) were performed by the fluorimetric method Resazurin Microtiter Assay (REMA) with some modifications. An overnight culture of X. citri subsp. citri strain 306 (IBSBF 1594) was grown in 20 mL in Nitrogen Yeast Glycerol (NYG) at 29 °C in constant agitation of 180–200 rpm. After 12 h, the Xcc inoculum was dispersed in NYG medium and distributed into a 96 well microtiter plate to a final volume of 100 μL per well (10^5 CFU per well). Stock solutions of tested compounds at 10 mg mL^−1 were prepared in dimethyl sulfoxide (DMSO) and dispersed in NYG medium to obtain 1% DMSO and the final compound concentration range of 0.78–100 μg mL^−1. The negative control was constituted of 100 μL culture medium. In addition, the copper oxychloride was tested as a comparison to alkyl dihydroxybenzoates and kanamycin (20 μg mL^−1), which was used as a control antibiotic. The plate was subsequently incubated at 29 °C for 12 h, and 15 μg mL^−1 freshly prepared resazurin solution in water was added to each well, and the plate was incubated for 2 h. The fluorescence was determined on a Synergy H1 (BioTek, Winooski, VT, USA) microplate reader using the excitation and emission filters at wavelengths of 530 and 590 nm respectively. After the REMA assay, the minimum bactericidal concentration (CBM) assay was performed using a 96-pin stainless steel plate replicator, accurately transferring the wells from the REMA plate to Petri dishes Petri dishes were incubated in oven B.O.D. at 29 °C for 24 to 48 h. The experiments were performed in triplicate.

[3] = tested on: X. citri subsp. citri strain 306 (IBSBF 1594); experiment: MBC, REMA plates replicated to Petri dishes; format: cell-based, Xanthomonas citri subsp. citri; settings: Xanthomonas citri
Procedure: The minimal bactericidal concentration (MBC) was determined by observing the bacterial growth in Petri dishes transferred from the REMA plates.
as §1

[4] = REMA, NYG medium, 29 °C, read-out: MIC
[5] = REMA, NYG medium, 29 °C, read-out: MIC in μM
[6] = Petri dishes from REMA plates, 29 °C, 24 to 48 h, read-out: MBC

## O=C(O)c1ccc(O)cc1O [2,4 DHB acid, 2,4 dihydroxybenzoic acid, reference compound]
[1]
  chromatographic logP: 2.6
[2]; [4]
  MIC: > 100 µg/mL
[2]; [5]
  MIC: > 648 µM
[3]; [6]
  MBC: > 100 µg/mL

## O=C(O)c1cc(O)ccc1O [2,5 DHB acid, 2,5 dihydroxybenzoic acid, reference compound]
[1]
  chromatographic logP: 2.8
[2]; [4]
  MIC: > 100 µg/mL
[2]; [5]
  MIC: > 648 µM
[3]; [6]
  MBC: > 100 µg/mL

## O=C(O)c1ccc(O)c(O)c1 [3,4 DHB acid, 3,4 dihydroxybenzoic acid, reference compound]
[1]
  chromatographic logP: 0.8
[2]; [4]
  MIC: > 100 µg/mL
[2]; [5]
  MIC: > 648 µM
[3]; [6]
  MBC: > 100 µg/mL

## CCOC(=O)c1ccc(O)cc1O [Compound 1]
[1]
  chromatographic logP: 2.8
[2]; [4]
  MIC: > 100 µg/mL
[2]; [5]
  MIC: > 548 µM
[3]; [6]
  MBC: > 100 µg/mL

## CCCCOC(=O)c1ccc(O)cc1O [Compound 2]
[1]
  chromatographic logP: 3.9
[2]; [5]
  MIC: 189 µM
[3]; [6]
  MBC: 50 µg/mL

## CCCCCCOC(=O)c1ccc(O)cc1O [Compound 3]
[1]
  chromatographic logP: 5
[2]; [5]
  MIC: 84 µM
[3]; [6]
  MBC: 50 µg/mL

## CCCCCCCCOC(=O)c1ccc(O)cc1O [Compound 5]
[1]
  chromatographic logP: 6.1
[2]; [4]
  MIC: > 100 µg/mL
[2]; [5]
  MIC: > 375 µM
[3]; [6]
  MBC: > 100 µg/mL

## CCCCCCCCCOC(=O)c1ccc(O)cc1O [Compound 6]
[1]
  chromatographic logP: 6.2
[2]; [4]
  MIC: > 100 µg/mL
[2]; [5]
  MIC: > 356 µM
[3]; [6]
  MBC: > 100 µg/mL

## CCCCCCCCCCOC(=O)c1ccc(O)cc1O [Compound 7]
[1]
  chromatographic logP: 6.9
[2]; [4]
  MIC: > 100 µg/mL
[2]; [5]
  MIC: > 340 µM
[3]; [6]
  MBC: > 100 µg/mL

## CCCCCCCCCCCCOC(=O)c1ccc(O)cc1O [Compound 8, dodecyl 2,4 dihydroxybenzoate]
[1]
  chromatographic logP: 7
[2]; [4]
  MIC: > 100 µg/mL
[2]; [5]
  MIC: > 310 µM
[3]; [6]
  MBC: > 100 µg/mL

## CC(C)OC(=O)c1ccc(O)cc1O [Compound 9]
[1]
  chromatographic logP: 2.6
[2]; [4]
  MIC: > 100 µg/mL
[2]; [5]
  MIC: > 510 µM
[3]; [6]
  MBC: > 100 µg/mL

## O=C(OC1CCCC1)c1ccc(O)cc1O [Compound 10]
[1]
  chromatographic logP: 2.2
[2]; [4]
  MIC: > 100 µg/mL
[2]; [5]
  MIC: > 450 µM
[3]; [6]
  MBC: > 100 µg/mL

## O=C(OC1CCCCC1)c1ccc(O)cc1O [Compound 11]
[1]
  chromatographic logP: 4
[2]; [5]
  MIC: 171 µM
[3]; [6]
  MBC: 100 µg/mL

## CCOC(=O)c1cc(O)ccc1O [Compound 13]
[1]
  chromatographic logP: 2.4
[2]; [4]
  MIC: > 100 µg/mL
[2]; [5]
  MIC: > 549 µM
[3]; [6]
  MBC: > 100 µg/mL

## CCCCOC(=O)c1cc(O)ccc1O [Compound 14]
[1]
  chromatographic logP: 3.4
[2]; [4]
  MIC: > 100 µg/mL
[2]; [5]
  MIC: > 475 µM
[3]; [6]
  MBC: > 100 µg/mL

## CCCCCCOC(=O)c1cc(O)ccc1O [Compound 15]
[1]
  chromatographic logP: 4.5
[2]; [5]
  MIC: 140 µM
[3]; [6]
  MBC: 50 µg/mL

## CCCCCCCCOC(=O)c1cc(O)ccc1O [Compound 17]
[1]
  chromatographic logP: 5.2
[2]; [4]
  MIC: > 100 µg/mL
[2]; [5]
  MIC: > 375 µM
[3]; [6]
  MBC: > 100 µg/mL

## CCCCCCCCCOC(=O)c1cc(O)ccc1O [Compound 18]
[1]
  chromatographic logP: 5.7
[2]; [4]
  MIC: > 100 µg/mL
[2]; [5]
  MIC: > 357 µM
[3]; [6]
  MBC: > 100 µg/mL

## CCCCCCCCCCOC(=O)c1cc(O)ccc1O [Compound 19]
[1]
  chromatographic logP: 6.3
[2]; [4]
  MIC: > 100 µg/mL
[2]; [5]
  MIC: > 340 µM
[3]; [6]
  MBC: > 100 µg/mL

## CCCCCCCCCCCCOC(=O)c1cc(O)ccc1O [Compound 20]
[1]
  chromatographic logP: 6.8
[2]; [4]
  MIC: > 100 µg/mL
[2]; [5]
  MIC: > 310 µM
[3]; [6]
  MBC: > 100 µg/mL

## CC(C)OC(=O)c1cc(O)ccc1O [Compound 21]
[1]
  chromatographic logP: 2.2
[2]; [4]
  MIC: > 100 µg/mL
[2]; [5]
  MIC: > 510 µM
[3]; [6]
  MBC: > 100 µg/mL

## O=C(OC1CCCC1)c1cc(O)ccc1O [Compound 22]
[1]
  chromatographic logP: 3
[2]; [4]
  MIC: 83.5 µg/mL
[2]; [5]
  MIC: 375 µM
[3]; [6]
  MBC: 100 µg/mL

## O=C(OC1CCCCC1)c1cc(O)ccc1O [Compound 23]
[1]
  chromatographic logP: 3.5
[2]; [4]
  MIC: 90.4 µg/mL
[2]; [5]
  MIC: 382 µM
[3]; [6]
  MBC: 100 µg/mL

## O=C(OCCc1ccccc1)c1cc(O)ccc1O [Compound 24]
[1]
  chromatographic logP: 3.1
[2]; [4]
  MIC: 59.7 µg/mL
[2]; [5]
  MIC: 231 µM
[3]; [6]
  MBC: 100 µg/mL

## CCOC(=O)c1ccc(O)c(O)c1 [Compound 25]
[1]
  chromatographic logP: 1.7
[2]; [4]
  MIC: > 100 µg/mL
[2]; [5]
  MIC: > 549 µM
[3]; [6]
  MBC: > 100 µg/mL

## CCCCOC(=O)c1ccc(O)c(O)c1 [Compound 26]
[1]
  chromatographic logP: 2.6
[2]; [4]
  MIC: > 100 µg/mL
[2]; [5]
  MIC: > 475 µM
[3]; [6]
  MBC: > 100 µg/mL

## CCCCCCOC(=O)c1ccc(O)c(O)c1 [Compound 27]
[1]
  chromatographic logP: 3.7
[2]; [4]
  MIC: 44.4 µg/mL
[2]; [5]
  MIC: 186 µM
[3]; [6]
  MBC: 50 µg/mL

## CCCCCCCCOC(=O)c1ccc(O)c(O)c1 [Compound 29]
[1]
  chromatographic logP: 4.9
[2]; [4]
  MIC: 31.2 µg/mL
[2]; [5]
  MIC: 117 µM
[3]; [6]
  MBC: 50 µg/mL

## CCCCCCCCCOC(=O)c1ccc(O)c(O)c1 [Compound 30]
[1]
  chromatographic logP: 5.5
[2]; [4]
  MIC: 26.7 µg/mL
[2]; [5]
  MIC: 95 µM
[3]; [6]
  MBC: 50 µg/mL

## CCCCCCCCCCOC(=O)c1ccc(O)c(O)c1 [Compound 31]
[2]; REMA, NYG medium, 29 °C
  MIC: > 100 µg/mL
[2]; read-out: MIC in μM, REMA, NYG medium, 29 °C, 12 h
  MIC: > 340 µM
[3]
  MBC: 100 µg/mL

## CCCCCCCCCCCCOC(=O)c1ccc(O)c(O)c1 [Compound 32]
[1]
  chromatographic logP: 6.9
[2]; [4]
  MIC: > 100 µg/mL
[2]; [5]
  MIC: > 310 µM
[3]; [6]
  MBC: > 100 µg/mL

## CC(C)OC(=O)c1ccc(O)c(O)c1 [Compound 33]
[1]
  chromatographic logP: 1.4
[2]; [4]
  MIC: > 100 µg/mL
[2]; [5]
  MIC: > 510 µM
[3]; [6]
  MBC: > 100 µg/mL

## O=C(OC1CCCC1)c1ccc(O)c(O)c1 [Compound 34]
[1]
  chromatographic logP: 2.2
[2]; [4]
  MIC: > 100 µg/mL
[2]; [5]
  MIC: > 450 µM
[3]; [6]
  MBC: > 100 µg/mL

## O=C(OC1CCCCC1)c1ccc(O)c(O)c1 [Compound 35]
[1]
  chromatographic logP: 2.7
[2]; [4]
  MIC: > 100 µg/mL
[2]; [5]
  MIC: > 423 µM
[3]; [6]
  MBC: > 100 µg/mL

## O=C(OCCc1ccccc1)c1ccc(O)c(O)c1 [Compound 36]
[1]
  chromatographic logP: 2.4
[2]; [4]
  MIC: < 100 µg/mL
[2]; [5]
  MIC: 345 µM
[3]; [6]
  MBC: 100 µg/mL
